What all share (type): in vivo
Test [1] concerns Erysiphe graminis f. sp. tritici. The experiment in a line: Test E: wheat powdery mildew, spray the day before inoculation (disease rating, 100 = 100% disease control). The text has this: (§1) The test compounds were first dissolved in acetone in an amount equal to 3% of the final volume and then suspended at the desired concentration (in ppm) in acetone and purified water (50/50 mix by volume) containing 250 ppm of the surfactant Trem® 014 (polyhydric alcohol esters). The resulting test suspensions were then used in tests A-E. Spraying a 200 ppm test suspension to the point of run-off on the test plants was the equivalent of a rate of 500 g/ha.
The test suspension was sprayed to the point of run-off on wheat seedlings. The following day the seedlings were inoculated with a spore dust of Erysiphe graminis f. sp. tritici, (the causal agent of wheat powdery mildew) and incubated in a growth chamber at 20° C. for 7 days, after which disease ratings were made.
(§2) Results for Tests A-F are given in Table A. In the table, a rating of 100 indicates 100% disease control and a rating of 0 indicates no disease control (relative to the controls). A dash (-) indicates no test results.

The subject of test [2] is Phytophthora infestans. The experiment in a line: whole plant or invertebrate. The conditions noted are these: for Test C disease rating (100 = 100% disease control, 0 = no disease control): tomato late blight.
Test [3] has as its system Phytophthora infestans. The experiment in a line: whole plant or invertebrate. To be noted: for Test D disease rating (100 = 100% disease control, 0 = no disease control): tomato late blight.
For test [4], the system named is Plasmopara viticola. The experiment in a line: Test B: grape downy mildew, spray 24 h after inoculation (disease rating, 100 = 100% disease control).
From the text: as §1
Grape seedlings were inoculated with a spore suspension of Plasmopara viticola (the causal agent of grape downy mildew) and incubated in a saturated atmosphere at 20° C. for 24 h. After a short drying period, the test suspension was sprayed to the point of run-off on the grape seedlings and then moved to a growth chamber at 20° C. for 5 days, after which the test units were placed back into a saturated atmosphere at 20° C. for 24 h. Upon removal, disease ratings were made.
as §2

[5] abbreviates: spray the day before inoculation, tested at 40 ppm.
The mark [6] stands for this setting: Blumeria graminis, topical, 168 h, spray the day before inoculation, tested at 40 ppm, read-out: Test E disease rating (100 = 100% disease control, 0 = no disease control).
The mark [7] stands for this setting: Phytophthora infestans, in Solanum lycopersicum, 144 h, read-out: Test C disease rating (100 = 100% disease control, 0 = no disease control).
Where [8] appears, read: Phytophthora infestans, in Solanum lycopersicum, topical, 96 h, read-out: Test D disease rating (100 = 100% disease control, 0 = no disease control).
[9] abbreviates: Plasmopara viticola, 144 h, spray 24 h after inoculation, tested at 40 ppm, read-out: Test B disease rating (100 = 100% disease control, 0 = no disease control).

This is an account of results in patent US8586611B2 (priority 2005, dated 2013).

Like-named read-outs stand apart in the source and are kept apart here.

In the case of `Cc1cc(C(F)(F)F)nn1CC(=O)N1CCC(c2nc(C(=O)N(C)C3c4ccccc4CC3O)cs2)CC1` (racemic) [compound 200], the “Test E disease rating (100 = 100% disease control, 0 = no disease control)” value in test [1] (setting [5]) is 0%. In test [2] (setting [5]), the “Test C disease rating (100 = 100% disease control, 0 = no disease control)” value was found to be 98%. For the same molecule, the “Test D disease rating (100 = 100% disease control, 0 = no disease control)” value in test [3] (spray 17 h after inoculation, tested at 40 ppm) was 98%. In addition, the “Test B disease rating (100 = 100% disease control, 0 = no disease control)” value in test [4] (spray 24 h after inoculation, tested at 40 ppm) was 39%.
In the case of `Cc1cc(C(F)(F)F)nn1CC(=O)N1CCC(c2nc(C(=O)N(C)[C@@H]3CCCc4ccccc43)co2)CC1` [Compound 151, N-methyl-2-[1-[[5-methyl-3-(trifluoromethyl)-1H-pyrazol-1-yl]acetyl]-4-piperidinyl]-N-[(1R)-1,2,3,4-tetrahydro-1-naphthalenyl]-4-oxazolecarboxamide], the pest or weed control at 40 ppm stood at 0% in test [1] (setting [6]), 100% in test [2] (setting [7]), 99% in test [3] (setting [8]) and 99% in test [4] (setting [9]).
`CC[C@H](c1ccccc1)N(C)C(=O)c1coc(C2CCN(C(=O)Cn3nc(C(F)(F)F)cc3C)CC2)n1` [Compound 152, N-methyl-2-[1-[[5-methyl-3-(trifluoromethyl)-1H-pyrazol-1-yl]acetyl]-4-piperidinyl]-N-[(1R)-1-phenylpropyl]-4-oxazolecarboxamide]: the pest or weed control at 40 ppm was 0% in test [1] (setting [6]), 100% in test [2] (setting [7]), 99% in test [3] (setting [8]) and 99% in test [4] (setting [9]).
On to `Cc1ccc(C)c(CC(=O)N2CCC(c3nc(C(=O)N(C)[C@@H]4CCCc5ccccc54)co3)CC2)c1` [Compound 153, 2-[1-[(2,5-dimethylphenyl)acetyl]-4-piperidinyl]-N-methyl-N-[(1R)-1,2,3,4-tetrahydro-1-naphthalenyl]-4-oxazolecarboxamide], for which the pest or weed control at 40 ppm in test [1] (setting [6]) was 0%; in test [2] (setting [7]), 100%; in test [3] (setting [8]), 98%; in test [4] (setting [9]), 99%.
The corresponding values for `CC[C@H](c1ccccc1)N(C)C(=O)c1coc(C2CCN(C(=O)Cc3cc(C)ccc3C)CC2)n1` [Compound 154, 2-[1-[(2,5-dimethylphenyl)acetyl]-4-piperidinyl]-N-methyl-N-[(1R)-1-phenylpropyl]-4-oxazolecarboxamide] are 0%, 100%, 68% and 99%.
The like results for `Cc1cc(C(F)(F)F)nn1CC(=O)N1CCC(c2nc(C(=O)N(C)C3CCC(=O)c4ccccc43)cs2)CC1` (centres unmarked) [Compound 211, N-methyl-2-[1-[[5-methyl-3-(trifluoromethyl)-1H-pyrazol-1-yl]acetyl]-4-piperidinyl]-N-(1,2,3,4-tetrahydro-4-oxo-1-naphthalenyl)-4-thiazolecarboxamide] were, in that order, 0%, 100%, 99% and 99%.
The corresponding values for `Cc1cc(C(F)(F)F)nn1CC(=O)N1CC=C(c2nc(C(=O)N(C)[C@@H]3CCCc4ccccc43)cs2)CC1` [Compound 218, N-methyl-2-[1,2,3,6-tetrahydro-1-[[5-methyl-3-(trifluoromethyl)-1H-pyrazol-1-yl]acetyl]-4-pyridinyl]-N-[(1R)-1,2,3,4-tetrahydro-1-naphthalenyl]-4-thiazolecarboxamide] are 0%, 100%, 99% and 91%.
Turning to `Cc1cc(C(F)(F)F)nn1CC(=O)N1CCN(c2nc(C(=O)N(C)[C@@H]3CCCc4ccccc43)cs2)CC1` [Compound 220, N-methyl-2-[4-[[5-methyl-3-(trifluoromethyl)-1H-pyrazol-1-yl]acetyl]-1-piperazinyl]-N-[(1R)-1,2,3,4-tetrahydro-1-naphthalenyl]-4-thiazolecarboxamide], the pest or weed control at 40 ppm was 0% in test [1] (setting [6]), 100% in test [2] (setting [7]), 98% in test [3] (setting [8]) and 95% in test [4] (setting [9]).
The like results for `Cc1cc(C(F)(F)F)nn1CC(=O)N1CCC(c2nc(C(=O)N(C)C3c4ccccc4CC3(C)C)cs2)CC1` (centres unmarked) [Compound 222, N-(2,3-dihydro-2,2-dimethyl-1H-inden-1-yl)-N-methyl-2-[1-[[5-methyl-3-(trifluoromethyl)-1H-pyrazol-1-yl]acetyl]-4-piperidinyl]-4-thiazolecarboxamide] were, in that order, 0%, 100%, 99% and 100%.
For `Cc1cc(C(F)(F)F)nn1CC(=O)N1CCC(c2nc(C(=O)N(C)C3c4ccccc4CC3C)cs2)CC1` (centres unmarked) [Compound 226, N-(2,3-dihydro-2-methyl-1H-inden-1-yl)-N-methyl-2-[1-[[5-methyl-3-(trifluoromethyl)-1H-pyrazol-1-yl]acetyl]-4-piperidinyl]-4-thiazolecarboxamide], the pest or weed control at 40 ppm in test [1] (setting [6]) was found to be 0%; in test [2] (setting [7]), 100%; in test [3] (setting [8]) it was 99%; in test [4] (setting [9]), 100%.
For `Cc1cc(C(F)(F)F)nn1CC(=O)N1CCC(n2cc(C(=O)N(C)[C@@H]3CCCc4ccccc43)cn2)CC1` [Compound 233, N-methyl-1-[1-[[5-methyl-3-(trifluoromethyl)-1H-pyrazol-1-yl]acetyl]-4-piperidinyl]-N-[(1R)-1,2,3,4-tetrahydro-1-naphthalenyl]-1H-pyrazole-4-carboxamide], the pest or weed control at 40 ppm in test [1] (setting [6]) amounted to 0%; in test [2] (setting [7]), 100%; in test [3] (setting [8]) it was 99%; in test [4] (setting [9]), 99%.
As for `CN(C(=O)c1csc(C2CCN(C(=O)Cn3nc(Cl)cc3Cl)CC2)n1)[C@@H]1CCCc2ccccc21` [Compound 238, 2-[1-[(3,5-dichloro-1H-pyrazol-1-yl)acetyl]-4-piperidinyl]-N-methyl-N-[(1R)-1,2,3,4-tetrahydro-1-naphthalenyl]-4-thiazolecarboxamide], the pest or weed control at 10 ppm is 0% in test [1] (Blumeria graminis, topical, 168 h, spray the day before inoculation, tested at 10 ppm, read-out: Test E disease rating (100 = 100% disease control, 0 = no disease control)); 100% in test [2] (setting [7]); 99% in test [3] (setting [8]); 100% in test [4] (Plasmopara viticola, 144 h, spray 24 h after inoculation, tested at 10 ppm, read-out: Test B disease rating (100 = 100% disease control, 0 = no disease control)).
Consider `CN(C(=O)c1csc(C2CCN(C(=O)Cn3nc(C(F)(F)F)cc3Cl)CC2)n1)[C@@H]1CCCc2ccccc21` [Compound 249, 2-[1-[[5-chloro-3-(trifluoromethyl)-1H-pyrazol-1-yl]acetyl]-4-piperidinyl]-N-methyl-N-[(1R)-1,2,3,4-tetrahydro-1-naphthalenyl]-4-thiazolecarboxamide], for which the pest or weed control at 40 ppm in test [1] (setting [6]) was 0%; in test [2] (setting [7]), 100%; in test [3] (setting [8]) it was 99%; in test [4] (setting [9]) it was 100%.
Consider `Cc1cc(C(F)(F)F)nn1CC(=O)N1CCC(c2nc(C(=S)N(C)[C@@H]3CCCc4ccccc43)cs2)CC1` [Compound 289, N-methyl-2-[1-[[5-methyl-3-(trifluoromethyl)-1H-pyrazol-1-yl]acetyl]-4-piperidinyl]-N-[(1R)-1,2,3,4-tetrahydro-1-naphthalenyl]-4-thiazolecarbothioamide], for which, in test [1] (sprayed the day before inoculation, 7 days at 20° C., tested at 40 ppm (*)), the “Test E disease rating (100 = 100% disease control, 0 = no disease control)” value is 65. In addition, the “Test C disease rating (100 = 100% disease control, 0 = no disease control)” value in test [2] (sprayed the day before inoculation, tested at 40 ppm (*)) turned out to be 100. Also, the “Test D disease rating (100 = 100% disease control, 0 = no disease control)” value in test [3] (sprayed 17 h after inoculation, tested at 40 ppm (*)) is 99. The “Test B disease rating (100 = 100% disease control, 0 = no disease control)” value in test [4] (sprayed 24 h after inoculation, tested at 40 ppm (*)) came to 100.
